Patent US5444070A, “Phenyl substituted heterocyclic compounds” (NeuroSearch A/S, priority 1992, dated 1995)

Key:
[1] = tested on: reuptake of dopamine in synaptosomes of rat forebrain; test: inhibition of dopamine reuptake in synaptosomes of rat forebrain; format: biochemical; conditions: 3H-dopamine 1×10^-9 M, 10 min at 37° C., male Wistar rat forebrain synaptosomes; read-out: Dopamine reuptake inhibiting activity (IC50)
Description: Fresh whole forebrain (at 0°-4° C.) from male Wistar rats (150-200 g) is homogenized in a glass homogenizer with a teflon pestle in 20×volumes 0.32M sucrose. The homogenate is centrifuged at 1000×g (~2900 rpm) for 10 min. The pellet is discarded and the supernatant is used for uptake assays.
A Krebs Buffer (119 mM NaCl, 24 mM NaHCO3, 2.1 mM KCl, 1.2 mM KH2 PO4, 1.8 mM CaCl2, 2 mM MgSO4,7H2 O, 12 mM glucose) is equilibrated with an atmosphere of 96% O2 : 4% CO2 for at least 60 min at 37° C. To 5 ml Krebs-buffer 100 μl of the radioactivity is added (3H-dopamine 1×10^-9 M final concentration) and 100 μl test substance solution and 200 μl of tissue suspension. The samples are thoroughly mixed and incubated 10 min at 37° C. followed by 2 min at 0° C. After incubation the samples are poured directly onto Whatman GF/C glass fibre filters under suction and immediately washed with 2×5 ml ice-cold 0.9% saline (NaCl) buffer. To the filter is added 3 ml of scintillation fluid, and the amount of radioactivity on the filters is determined by conventional liquid scintillation counting.

[2] = tested on: abnormal stereotyped behaviour; test: abnormal stereotyped behaviour; format: in vivo, rat; conditions: at every relevant dosing level tested
Description: Backward locomotion may occasionally be observed.
+=only stereotyped sniffing
++=stereotyped sniffing and episodic licking
+++=Continuous licking and/or biting gnawing

Row | SMILES | IC50 [1] | side effects: abnormal stereotyped behaviour [2]
1 | CN1[C@H]2CC[C@@H]1[C@H](c1nc(-c3ccccc3)no1)[C@@H](c1ccc3ccccc3c1)C2 [(1R,2R,3S)-2-(3-phenyl-1,2,4-oxadiazol-5-yl)-3-(2-naphthyl)-tropane] | 540 nM | –
2 | CN1[C@H]2CC[C@@H]1[C@H](c1nc(-c3ccccc3)no1)[C@@H](c1ccc(Cl)cc1)C2 [(1R,2R,3S)-2-(3-phenyl-1,2,4-oxadiazol-5-yl)-3-(4-chlorophenyl)-tropane] | 330 nM | –
3 | COC(=O)[C@@H]1[C@@H](c2ccc(F)cc2)C[C@@H]2CC[C@H]1N2C [trans isomer of Win 35,428, (1R,2R,3S)-2-carbomethoxy-3-(4-fluorophenyl)tropane, reference compound] | – | essentially or totally devoid of side effects
4 | Cc1ccc([C@H]2C[C@@H]3CC[C@H]([C@@H]2c2nc(-c4ccccc4)no2)N3C)cc1 [(1R,2R,3S)-2-(3-phenyl-1,2,4-oxadiazol-5-yl)-3-(4-methylphenyl)-tropane] | 960 nM | –
